Measurements: PubChem BioAssay AID248 (DTP/NCI, 2004)
Toxic doses and inconclusive results are not listed. No stated cut-off is given here; in the data, active means T/C of 150% or more; inactive means T/C below 125%.

Tested on: L1210 leukemia ip in BDF1 mice, survival T/C
Test: NCI In Vivo Anticancer Drug Screen. Data for tumor model L1210 Leukemia (intraperitoneal) in B6D2F1 (BDF1) mice
Details: endpoint: mean survival time, higher = longer survival
Procedure, shortened: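 Antitumor effect is assessed in tumor-bearing animals. Survival in the compound arm is compared with a vehicle-dosed control arm and expressed as their quotient.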

[1] = dose: 100.0 mg/kg/injection, schedule: Q01DX001 (ip), vehicle: other
[2] = dose: 100.0 mg/kg/injection, schedule: Q04DX003 (ip), vehicle: saline with Tween-80
[3] = dose: 200.0 mg/kg/injection, schedule: Q04DX003 (ip), vehicle: saline with Tween-80
[4] = dose: 400.0 mg/kg/injection, schedule: Q04DX003 (ip), vehicle: saline with Tween-80

Measured: T/C

O=C1NC(=O)C(c2ccccc2)(C2CCCC2)N1 (stereo unspecified)
inactive: dose: 50.0 mg/kg/injection, schedule: Q01DX009 (ip), vehicle: Klucel (hydroxypropylcellulose) (HPC) 93 % of control | dose: 100.0 mg/kg/injection, schedule: Q01DX009 (ip), vehicle: Klucel (hydroxypropylcellulose) (HPC) 98 % of control | dose: 200.0 mg/kg/injection, schedule: Q01DX009 (ip), vehicle: Klucel (hydroxypropylcellulose) (HPC) 96 % of control

Cc1cc(=O)[nH]c2c(Cl)ccc(C(F)(F)F)c12
inactive: [1] 94 % of control | dose: 200.0 mg/kg/injection, schedule: Q01DX001 (ip), vehicle: other 94 % of control | dose: 400.0 mg/kg/injection, schedule: Q01DX001 (ip), vehicle: other 114 % of control

COc1ccc(C(=O)CC2CCCC(CC(=O)c3ccc(OC)cc3)N2C)cc1 (stereo unspecified)
inactive: dose: 75.0 mg/kg/injection, schedule: Q01DX001 (ip), vehicle: other 98 % of control | dose: 150.0 mg/kg/injection, schedule: Q01DX001 (ip), vehicle: other 90 % of control

CCCCCCCCCCCC[N+](C)(C)C (tested in a mixture with another compound)
inactive: dose: 1.25 mg/kg/injection, schedule: Q01DX015 (ip), vehicle: saline 101 % of control | dose: 2.5 mg/kg/injection, schedule: Q01DX015 (ip), vehicle: saline 95 % of control | dose: 3.12 mg/kg/injection, schedule: Q01DX009 (ip), vehicle: saline 92 % of control | dose: 3.12 mg/kg/injection, schedule: Q04DX003 (ip), vehicle: saline 98 % of control | dose: 5.0 mg/kg/injection, schedule: Q01DX015 (ip), vehicle: saline 101 % of control | dose: 5.0 mg/kg/injection, schedule: Q04DX003 (ip), vehicle: saline 107 % of control | dose: 6.25 mg/kg/injection, schedule: Q01DX009 (ip), vehicle: saline 94 % of control | dose: 6.25 mg/kg/injection, schedule: Q04DX003 (ip), vehicle: saline 98 % of control | dose: 10.0 mg/kg/injection, schedule: Q01DX015 (ip), vehicle: saline 98 % of control | dose: 10.0 mg/kg/injection, schedule: Q04DX003 (ip), vehicle: saline 112 % of control | dose: 12.5 mg/kg/injection, schedule: Q01DX009 (ip), vehicle: saline 105 % of control | dose: 12.5 mg/kg/injection, schedule: Q04DX003 (ip), vehicle: saline 95 % of control | dose: 18.0 mg/kg/injection, schedule: Q01DX009 (ip), vehicle: saline 90 % of control | dose: 20.0 mg/kg/injection, schedule: Q01DX015 (ip), vehicle: saline 98 % of control | dose: 20.0 mg/kg/injection, schedule: Q04DX003 (ip), vehicle: saline 93 % of control | dose: 37.5 mg/kg/injection, schedule: Q01DX001 (ip), vehicle: saline 101 % of control | dose: 40.0 mg/kg/injection, schedule: Q01DX015 (ip), vehicle: saline 100 % of control | dose: 40.0 mg/kg/injection, schedule: Q04DX003 (ip), vehicle: Klucel (hydroxypropylcellulose) (HPC) 90 % of control

NC(=S)c1ccc(S(=O)(=O)Nc2cccc(Br)c2)cc1
inactive: [2] 103 % of control | [3] 103 % of control | [4] 97 % of control

CN1CN(c2ccccc2)C2(CCN(CCc3cc4ccccc4o3)CC2)C1=O
inactive: dose: 100.0 mg/kg/injection, schedule: Q01DX001 (ip), vehicle: Klucel (hydroxypropylcellulose) (HPC) 96 % of control | dose: 200.0 mg/kg/injection, schedule: Q01DX001 (ip), vehicle: Klucel (hydroxypropylcellulose) (HPC) 95 % of control | dose: 400.0 mg/kg/injection, schedule: Q01DX001 (ip), vehicle: Klucel (hydroxypropylcellulose) (HPC) 101 % of control

CN1CCN(C(=O)c2ccc(C(=O)N3CCN(C)CC3)cc2)CC1
inactive: dose: 15.0 mg/kg/injection, schedule: Q01DX Z (ip), vehicle: saline 94 % of control | dose: 30.0 mg/kg/injection, schedule: Q01DX Z (ip), vehicle: saline 94 % of control | dose: 60.0 mg/kg/injection, schedule: Q01DX Z (ip), vehicle: saline 108 % of control | dose: 120.0 mg/kg/injection, schedule: Q01DX Z (ip), vehicle: saline 102 % of control | dose: 125.0 mg/kg/injection, schedule: Q01DX Z (ip), vehicle: carboxymethylcellulose (CMC) 96 % of control | dose: 250.0 mg/kg/injection, schedule: Q01DX Z (ip), vehicle: carboxymethylcellulose (CMC) 102 % of control | dose: 500.0 mg/kg/injection, schedule: Q01DX Z (ip), vehicle: carboxymethylcellulose (CMC) 90 % of control

CCOC(=O)N/N=C\c1cc(OC)c(OC)c(OC)c1
inactive: dose: 50.0 mg/kg/injection, schedule: Q01DX009 (ip), vehicle: saline with Tween-80 103 % of control | dose: 100.0 mg/kg/injection, schedule: Q01DX009 (ip), vehicle: saline with Tween-80 98 % of control | [2] 102 % of control | [3] 103 % of control

Nc1ccn(CCCCc2ccccc2)c(=O)n1
inactive: dose: 100.0 mg/kg/injection, schedule: Q01DX001 (ip), vehicle: gum acacia 93 % of control | dose: 200.0 mg/kg/injection, schedule: Q01DX001 (ip), vehicle: gum acacia 95 % of control | dose: 400.0 mg/kg/injection, schedule: Q01DX001 (ip), vehicle: gum acacia 91 % of control

COc1ccccc1OCCOCCNC1C(C)CCCC1(C)C (stereo unspecified)
inactive: dose: 12.5 mg/kg/injection, schedule: Q04DX003 (ip), vehicle: Klucel (hydroxypropylcellulose) (HPC) 100 % of control | dose: 25.0 mg/kg/injection, schedule: Q04DX003 (ip), vehicle: Klucel (hydroxypropylcellulose) (HPC) 94 % of control | dose: 50.0 mg/kg/injection, schedule: Q04DX003 (ip), vehicle: Klucel (hydroxypropylcellulose) (HPC) 93 % of control | dose: 100.0 mg/kg/injection, schedule: Q04DX003 (ip), vehicle: Klucel (hydroxypropylcellulose) (HPC) 90 % of control

CCOC(=O)c1ccc(N(CC(S)CNc2cc(C)nc(N)n2)S(=O)(=O)c2ccc(C)cc2)cc1 (stereo unspecified)
inactive: dose: 25.0 mg/kg/injection, schedule: Q01DX001 (ip), vehicle: saline 95 % of control | dose: 50.0 mg/kg/injection, schedule: Q01DX001 (ip), vehicle: saline 90 % of control

O=C(Nc1cccc2ccccc12)c1ccccc1O
inactive: dose: 50.0 mg/kg/injection, schedule: Q01DX001 (ip), vehicle: carboxymethylcellulose (CMC) 113 % of control | dose: 100.0 mg/kg/injection, schedule: Q01DX001 (ip), vehicle: carboxymethylcellulose (CMC) 108 % of control | dose: 200.0 mg/kg/injection, schedule: Q01DX001 (ip), vehicle: carboxymethylcellulose (CMC) 96 % of control | dose: 400.0 mg/kg/injection, schedule: Q01DX001 (ip), vehicle: carboxymethylcellulose (CMC) 116 % of control

Cc1cc(N=Cc2cccc([N+](=O)[O-])c2O)c2ccccc2n1
inactive: [1] 101 % of control

O=c1[nH][nH]c2ccccc12
inactive: dose: 31.2 mg/kg/injection, schedule: Q01DX Z (ip), vehicle: other 88 % of control | dose: 125.0 mg/kg/injection, schedule: Q01DX Z (ip), vehicle: other 88 % of control | dose: 250.0 mg/kg/injection, schedule: Q01DX Z (ip), vehicle: other 92 % of control

NC(N)=NCCN1C(c2ccccc2)C1c1ccccc1 (stereo unspecified)
inactive: dose: 12.5 mg/kg/injection, schedule: Q04DX002 (ip), vehicle: saline with Tween-80 107 % of control | dose: 25.0 mg/kg/injection, schedule: Q04DX002 (ip), vehicle: saline with Tween-80 103 % of control | dose: 50.0 mg/kg/injection, schedule: Q04DX002 (ip), vehicle: saline with Tween-80 100 % of control

O=c1ccccc(Br)c1O
inactive: dose: 100.0 mg/kg/injection, schedule: Q04DX003 (ip), vehicle: acetone 100 % of control | dose: 200.0 mg/kg/injection, schedule: Q04DX003 (ip), vehicle: acetone 98 % of control

ClC(CCC(Cl)c1ccccc1)c1ccccc1 (stereo unspecified)
inactive: dose: 100.0 mg/kg/injection, schedule: Q04DX002 (ip), vehicle: Klucel (hydroxypropylcellulose) (HPC) 101 % of control | dose: 200.0 mg/kg/injection, schedule: Q04DX002 (ip), vehicle: Klucel (hydroxypropylcellulose) (HPC) 104 % of control | dose: 400.0 mg/kg/injection, schedule: Q04DX002 (ip), vehicle: Klucel (hydroxypropylcellulose) (HPC) 101 % of control

O=C(O)C1(c2ccccc2)SCCS1
inactive: [2] 89 % of control | [3] 96 % of control | [4] 94 % of control
